In this assay the target is MAP4K4 kinase (Homo sapiens, UniProt O95819). As to the kind of experiment: MAP4K4 fragment screen, KD of fragment hits. In kind it is binding. The following applies: for LE difference to the cluster seed: difference in LE to cluster seed (C02M01 or C12M01); for Kd: fragment screening hits, read-out: MAP4K4 inact KD; for Ligand Efficiency: LE computed as 1.4*pKd/nHeavyAtoms. An excerpt:
Utilizing additional fragment collections, we expanded our previous ~2,500 compound screen of the MAP4K4 kinase by performing an additional screen of 8,000 compounds [28]. […] AAP similarity and DISE clustering were used to cluster the combined hit set fragments. The fragment hits were sorted according to their LE, followed by the cluster seed selection. The AAP similarity threshold in this step was 0.3. The remaining hits were assigned to the most similar cluster seed.

Sequence of MAP4K4 kinase (O95819 whole entry, the tested form may be a part): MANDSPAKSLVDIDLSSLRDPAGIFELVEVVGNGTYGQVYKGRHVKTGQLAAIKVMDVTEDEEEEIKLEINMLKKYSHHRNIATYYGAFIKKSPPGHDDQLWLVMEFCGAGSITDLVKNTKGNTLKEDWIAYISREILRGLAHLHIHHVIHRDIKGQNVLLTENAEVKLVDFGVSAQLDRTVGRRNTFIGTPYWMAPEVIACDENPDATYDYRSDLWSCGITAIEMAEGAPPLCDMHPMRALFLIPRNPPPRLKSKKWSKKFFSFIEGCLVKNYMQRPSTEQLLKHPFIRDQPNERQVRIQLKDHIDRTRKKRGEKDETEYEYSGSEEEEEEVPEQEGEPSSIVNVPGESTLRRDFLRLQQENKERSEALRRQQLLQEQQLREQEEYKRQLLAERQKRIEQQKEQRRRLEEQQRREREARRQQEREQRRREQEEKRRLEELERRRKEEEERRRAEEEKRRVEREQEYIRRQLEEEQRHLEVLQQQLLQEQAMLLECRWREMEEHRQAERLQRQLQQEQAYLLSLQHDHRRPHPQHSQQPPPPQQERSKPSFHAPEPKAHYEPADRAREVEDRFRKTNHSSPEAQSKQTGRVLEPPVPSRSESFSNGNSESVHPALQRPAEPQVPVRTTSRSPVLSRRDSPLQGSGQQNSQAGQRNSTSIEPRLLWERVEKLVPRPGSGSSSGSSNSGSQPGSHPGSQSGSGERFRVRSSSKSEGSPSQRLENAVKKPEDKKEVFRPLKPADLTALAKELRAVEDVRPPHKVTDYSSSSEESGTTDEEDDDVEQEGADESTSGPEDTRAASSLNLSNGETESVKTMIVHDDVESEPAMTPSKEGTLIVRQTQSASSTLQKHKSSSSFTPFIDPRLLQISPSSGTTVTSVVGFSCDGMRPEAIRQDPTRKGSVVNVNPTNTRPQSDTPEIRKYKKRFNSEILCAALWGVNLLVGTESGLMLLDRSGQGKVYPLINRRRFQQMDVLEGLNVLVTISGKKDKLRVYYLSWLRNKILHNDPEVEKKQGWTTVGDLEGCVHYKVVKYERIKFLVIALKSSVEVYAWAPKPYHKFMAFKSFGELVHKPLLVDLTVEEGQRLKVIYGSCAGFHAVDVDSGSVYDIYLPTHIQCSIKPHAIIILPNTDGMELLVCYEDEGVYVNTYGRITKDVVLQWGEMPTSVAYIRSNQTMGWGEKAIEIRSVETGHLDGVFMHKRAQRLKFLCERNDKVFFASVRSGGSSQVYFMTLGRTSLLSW

Regarding `Nc1ncncc1-c1ccc(Cl)cc1` [C02M03], the “LE difference to the cluster seed” value worked out at 0.17 and the Kd (commonly the concentration at which binding is half-saturated) was determined as 35.5 µM.

On to `Nc1ccc2[nH]nc(-c3ccccc3)c2c1` [C12M03], for which the “Ligand Efficiency” value is 0.41, the “LE difference to the cluster seed” value is 0.09 and the Kd stood at 16.8 µM.

As for `Nc1ncncc1-c1ccc(O)cc1` [C02M01], the Kd amounted to 0.55 µM.

As for `Nc1ncnc(Cl)c1-c1ccccc1` [C02M04], the Kd was determined as 367 µM.

As for `Nc1ncncc1-c1ccccc1` [C02M02], the “LE difference to the cluster seed” value stood at 0.13 and the Kd stood at 28 µM.

Turning to `OCc1ccc(-c2cncnc2)cc1` [C02M05], the Kd turned out to be 505 µM.

As to `Nc1n[nH]c2cc(-c3ccccc3)ccc12` [C12M02], the “Ligand Efficiency” value was determined as 0.49 and the Kd was 2.1 µM.

`c1ccc(-c2n[nH]c3ccccc23)cc1` [C12M01]: the “Ligand Efficiency” value amounted to 0.5 and the Kd came out at 3.4 µM.

Regarding `Nc1c(-c2ccccc2)nn2ccccc12` [C12M05], the “Ligand Efficiency” value stood at 0.31 and the Kd is 276 µM.

For `CCc1nc(N)nc(N)c1-c1ccc(Cl)cc1` [C02M06], the Kd came to 930 µM.

Source of the values: PMC4392110, “Atom-Atom-Path similarity and Sphere Exclusion clustering: tools for prioritizing fragment hits” (Journal of Cheminformatics, 2015).
